According to patent US10301267B2, “Compounds” (AstraZeneca AB, priority 2006, dated 2019):

Target: FGFR1 active kinase (Homo sapiens, UniProt P11362)
Experiment: FGFR Kinase assay - Caliper Echo Dosing
Type: biochemical
Conditions: FGFR1 7.2 nM, 408 uM ATP, acoustic dosing; geometric mean of n
Procedure: FGFR Kinase Assay—Caliper Echo Dosing
To determine inhibition of FGFR activity, kinase assays were conducted using Caliper technology.
Kinase activity assays were performed in Greiner 384-well low volume plates, with a total reaction volume of 12 ul per well. Final concentration of FGFR1 active kinase in each reaction well was 7.2 nM. The substrate for each assay was a custom peptide with fluorescent tag (13 amino acids in length, […] with the fluorescene tag on the first K).
Compounds were dispensed directly in to assay plates using a Labcyte Echo 550 acoustic droplet ejection unit. Each well received 120 nl of DMSO containing compound such that the final concentration of compound in the assay prior to the addition of the stop solution ranged between 30 uM and 30 pM. In addition to compounds each plate carried maximum and minimum control wells, the max wells contained 120 nl of DMSO and the min wells contained 120 nl of 10 mM staurosporine (LC Laboratories, MA 01801, USA Catalogue No. S-9300). The Enzyme (at 7.2 nM [final]) and Substrate (at 3.6 uM [final]) were added separately to the compound plates, in reaction buffer [comprising: 50 mM MOPS (Sigma, Catalogue No. M1254)—pH 6.5, 0.004% Triton (Sigma, Catalogue No. X-100), 2.4 mM DTT, 12 mM MgCl2, 408 uM ATP] resulting in a final DMSO concentration in the reaction mix of 1%.
Assay plates were incubated at room temperature for 1.5 h, before the reaction was stopped with the addition of buffer [comprising: 100 mM HEPES—pH7.5, 0.033% Brij-35 (Sigma Catalogue No. B4184), 0.22% Caliper Coating Reagent #3 (Caliper Life Sciences Catalogue No. 760050), 88 mM EDTA, 5% DMSO]. Stopped assay plates were then read using the Caliper LabChip® LC3000 (which uses microfludics to measure a shift in mobility between fluorescent labelled peptide and the FGFR1 kinase—phosphorylated form of this peptide).
In the assay, compounds were tested at a range of concentrations. […] Percentage inhibition at 1 uM, as expressed herein, is a calculated value based on the curve fit that was generated experimentally. From the fitted curve plot, the effect of compound at a concentration of 1 uM was calculated as a percentage inhibition. The IC50 is the concentration of compound, which inhibits FGFR1 kinase activity by 50% in the context of this assay. This value is calculated using a standard curve fitting software package Origin™.

Sequence of FGFR1 active kinase (P11362 22-822): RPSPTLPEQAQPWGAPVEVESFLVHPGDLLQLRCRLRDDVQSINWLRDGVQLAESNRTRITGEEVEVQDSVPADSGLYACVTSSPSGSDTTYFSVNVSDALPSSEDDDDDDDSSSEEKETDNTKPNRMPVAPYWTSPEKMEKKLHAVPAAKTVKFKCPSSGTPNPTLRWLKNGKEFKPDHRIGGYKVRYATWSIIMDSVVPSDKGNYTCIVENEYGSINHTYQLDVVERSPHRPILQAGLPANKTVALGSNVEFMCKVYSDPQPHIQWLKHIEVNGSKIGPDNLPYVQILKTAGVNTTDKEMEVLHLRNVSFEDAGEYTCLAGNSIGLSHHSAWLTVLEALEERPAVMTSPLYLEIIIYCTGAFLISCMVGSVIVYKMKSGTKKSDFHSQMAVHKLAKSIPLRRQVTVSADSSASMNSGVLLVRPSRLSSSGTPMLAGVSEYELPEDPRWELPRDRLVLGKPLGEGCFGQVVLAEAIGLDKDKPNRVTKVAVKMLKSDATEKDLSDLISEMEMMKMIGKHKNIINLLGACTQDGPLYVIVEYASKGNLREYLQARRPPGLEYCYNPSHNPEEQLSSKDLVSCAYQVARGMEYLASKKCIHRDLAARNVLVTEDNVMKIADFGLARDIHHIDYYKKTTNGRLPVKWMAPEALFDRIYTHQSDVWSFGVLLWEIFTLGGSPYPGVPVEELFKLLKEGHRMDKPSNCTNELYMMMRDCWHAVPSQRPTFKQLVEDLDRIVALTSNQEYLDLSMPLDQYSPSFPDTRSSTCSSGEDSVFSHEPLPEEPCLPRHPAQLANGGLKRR

Compared with `COc1cc(COc2cc(NC(=O)c3ccc(C4CCN(C)CC4)cc3)[nH]n2)cc(OC)c1` [Example 103, N-[5-[(3,5-dimethoxyphenyl)methoxy]-2H-pyrazol-3-yl]-4-(1-methylpiperidin-4-yl)benzamide], `COc1cc(COc2cc(NC(=O)c3ccc(N4CCN(C)C(C)C4)cc3)[nH]n2)cc(OC)c1` (stereo not shown) [Example 101, N-[5-[(3,5-dimethoxyphenyl)methoxy]-2H-pyrazol-3-yl]-4-(3,4-dimethylpiperazin-1-yl)benzamide] is 22-fold higher in IC50: 0.94 nM for the first, 21 nM for the second.

Compared with `COc1cc(CCc2cc(NC(=O)c3ccc(N4CCN(C(=O)OC(C)(C)C)CC4)s3)[nH]n2)cc(OC)c1` [Example 102, tert-Butyl 4-[5-[[5-[2-(3,5-dimethoxyphenyl)ethyl]-2H-pyrazol-3-yl]carbamoyl]thiophen-2-yl]piperazine-1-carboxylate], `COc1cc(CCc2cc(NC(=O)c3ccc(N4CCN(C)CC4)s3)[nH]n2)cc(OC)c1` [Example 106, N-[5-[2-(3,5-dimethoxyphenyl)ethyl]-2H-pyrazol-3-yl]-5-(4-methylpiperazin-1-yl)thiophene-2-carboxamide] is 28-fold lower in IC50: 28 nM for the first, 1 nM for the second.

Compared with `COc1cc(COc2cc(NC(=O)c3ccc(N4CCNC(C)(C)C4)cc3)[nH]n2)cc(OC)c1` [Example 111, N-[5-[(3,5-dimethoxyphenyl)methoxy]-2H-pyrazol-3-yl]-4-(3,3-dimethylpiperazin-1-yl)benzamide], `COc1cc(CCc2cc(NC(=O)c3ccc(N4CCNC(C)(C)C4)cc3)[nH]n2)cc(OC)c1` [Example 139, N-[5-[2-(3,5-dimethoxyphenyl)ethyl]-2H-pyrazol-3-yl]-4-(3,3-dimethylpiperazin-1-yl)benzamide] is 1.6-fold lower in IC50: 0.76 nM for the first, 0.47 nM for the second.

`COc1cc(COc2cc(NC(=O)c3cnc(N4CCN5CCCC5C4)nc3)[nH]n2)cc(OC)c1` (stereo not shown) [Example 134, 2-(3,4,6,7,8,8a-hexahydro-1H-pyrrolo[2,1-c]pyrazin-2-yl)-N-[5-[(3,5-dimethoxyphenyl)methoxy]-2H-pyrazol-3-yl]pyrimidine-5-carboxamide] and `COc1cc(CCc2cc(NC(=O)c3cnc(N4CCN5CCCCC5C4)nc3)[nH]n2)cc(OC)c1` (stereo not shown) [Example 127, 2-(1,3,4,6,7,8,9,9a-octahydropyrido[2,1-c]pyrazin-2-yl)-N-[5-[2-(3,5-dimethoxyphenyl)ethyl]-2H-pyrazol-3-yl]pyrimidine-5-carboxamide] are within 1.5-fold of each other in IC50: 2.4 nM for the first, 2.9 nM for the second.

Going from `COc1cc(CCc2cc(NC(=O)c3cnc(N4CCCN(C5CC5)CC4)cn3)[nH]n2)cc(OC)c1` [Example 174, 5-(4-cyclopropyl-1,4-diazepan-1-yl)-N-[5-[2-(3,5-dimethoxyphenyl)ethyl]-2H-pyrazol-3-yl]pyrazine-2-carboxamide] to `COc1cc(CCc2cc(NC(=O)c3cnc(N4CCN(C5CC5)CC4)cn3)[nH]n2)cc(OC)c1` [Example 113, 5-(4-Cyclopropylpiperazin-1-yl)-N-[5-[2-(3,5-dimethoxyphenyl)ethyl]-2H-pyrazol-3-yl]pyrazine-2-carboxamide], the IC50 falls from 3.7 nM to 2.3 nM (1.6-fold).

`COc1cc(COc2cc(NC(=O)c3cnc(N4CCN(C)C(C)C4)cn3)[nH]n2)cc(OC)c1` (stereo not shown) [Example 124, N-[5-[(3,5-Dimethoxyphenyl)methoxy]-2H-pyrazol-3-yl]-5-(3,4-dimethylpiperazin-1-yl)pyrazine-2-carboxamide] and `COc1cc(CCc2cc(NC(=O)c3cnc(N4CCN(C)C(C)C4)cn3)[nH]n2)cc(OC)c1` (stereo not shown) [Example 123, N-[5-[2-(3,5-Dimethoxyphenyl)ethyl]-2H-pyrazol-3-yl]-5-(3,4-dimethylpiperazin-1-yl)pyrazine-2-carboxamide] are within 1.5-fold of each other in IC50: 1.5 nM for the first, 2.2 nM for the second.

Going from `COc1cc(CCc2cc(NC(=O)c3cnc(N4CCCN(C5CC5)CC4)nc3)[nH]n2)cc(OC)c1` [Example 177, 2-(4-cyclopropyl-1,4-diazepan-1-yl)-N-[5-[2-(3,5-dimethoxyphenyl)ethyl]-2H-pyrazol-3-yl]pyrimidine-5-carboxamide] to `COc1cc(CCc2cc(NC(=O)c3cnc(N4CCN(C5CC5)CC4)nc3)[nH]n2)cc(OC)c1` [Example 126, 2-(4-cyclopropylpiperazin-1-yl)-N-[5-[2-(3,5-dimethoxyphenyl)ethyl]-2H-pyrazol-3-yl]pyrimidine-5-carboxamide], the IC50 falls from 7.3 nM to 3.6 nM (2-fold).

Going from `COc1cc(CCc2cc(NC(=O)c3ccc(CN(C)CC4CCCO4)cc3)n[nH]2)cc(OC)c1` (stereo not shown) [Example 57, N-[5-[2-(3,5-Dimethoxyphenyl)ethyl]-1H-pyrazol-3-yl]-4-[(methyl-(oxolan-2-ylmethyl)amino)methyl]benzamide] to `COc1cc(CCc2cc(NC(=O)c3ccc(N4CC(C)N(C)C(C)C4)cc3)n[nH]2)cc(OC)c1` (stereo not shown) [Example 96, N-[5-[2-(3,5-Dimethoxyphenyl)ethyl]-1H-pyrazol-3-yl]-4-(3,4,5-trimethylpiperazin-1-yl)benzamide], the IC50 falls from 5.3 nM to 0.54 nM (9.8-fold).

Going from `COc1cc(COc2cc(NC(=O)c3ccc(N4C[C@@H](C)N[C@@H](C)C4)s3)[nH]n2)cc(OC)c1` [Example 147, N-[5-[(3,5-dimethoxyphenyl)methoxy]-2H-pyrazol-3-yl]-5-[(3S,5R)-3,5-dimethylpiperazin-1-yl]thiophene-2-carboxamide] to `COc1cc(COc2cc(NC(=O)c3ccc(N4CCNC(C)(C)C4)s3)[nH]n2)cc(OC)c1` [Example 140, N-[5-[(3,5-dimethoxyphenyl)methoxy]-2H-pyrazol-3-yl]-5-(3,3-dimethylpiperazin-1-yl)thiophene-2-carboxamide], the IC50 falls from 1.8 nM to 0.98 nM (1.8-fold).

`CCN1CCN(c2ncc(C(=O)Nc3cc(CCc4cc(OC)cc(OC)c4)n[nH]3)cn2)CC1C` (stereo not shown) [Example 143, N-[5-[2-(3,5-dimethoxyphenyl)ethyl]-2H-pyrazol-3-yl]-2-(4-ethyl-3-methylpiperazin-1-yl)pyrimidine-5-carboxamide] and `COc1cc(CCc2cc(NC(=O)c3cnc(N4C[C@@H](C)N(C)[C@@H](C)C4)nc3)[nH]n2)cc(OC)c1` [Example 136, N-[5-[2-(3,5-dimethoxyphenyl)ethyl]-2H-pyrazol-3-yl]-2-[(3R,5S)-3,4,5-trimethylpiperazin-1-yl]pyrimidine-5-carboxamide] are within 1.5-fold of each other in IC50: 2.7 nM for the first, 1.9 nM for the second.

First: CCN1CCN(c2ccc(C(=O)Nc3cc(OCc4cc(OC)cc(OC)c4)n[nH]3)cc2)CC1 [Example 179, N-[5-[(3,5-dimethoxyphenyl)methoxy]-2H-pyrazol-3-yl]-4-(4-ethylpiperazin-1-yl)benzamide]
Second: C=CCN1CCC(c2ccc(C(=O)Nc3cc(CCc4cc(OC)cc(OC)c4)n[nH]3)cc2)CC1 [Example 144, N-[5-[2-(3,5-dimethoxyphenyl)ethyl]-2H-pyrazol-3-yl]-4-(1-prop-2-enylpiperidin-4-yl)benzamide]
The IC50 of the first is 17-fold higher: 0.68 nM for the first, 0.041 nM for the second.

`COc1cc(CCc2cc(NC(=O)c3cnc(N4CCNC(C)(C)C4)cn3)[nH]n2)cc(OC)c1` [Example 108, N-[5-[2-(3,5-dimethoxyphenyl)ethyl]-2H-pyrazol-3-yl]-5-(3,3-dimethylpiperazin-1-yl)pyrazine-2-carboxamide] and `COc1cc(CCc2cc(NC(=O)c3cnc(N4CCCN(C)CC4)cn3)[nH]n2)cc(OC)c1` [Example 163, N-[5-[2-(3,5-dimethoxyphenyl)ethyl]-2H-pyrazol-3-yl]-5-(4-methyl-1,4-diazepan-1-yl)pyrazine-2-carboxamide] are within 1.5-fold of each other in IC50: 2 nM for the first, 1.8 nM for the second.

Compared with `COc1cc(COc2cc(NC(=O)c3cnc(N4C[C@@H](C)N(CC#N)[C@@H](C)C4)cn3)[nH]n2)cc(OC)c1` [Example 131, 5-[(3R,5S)-4-(cyanomethyl)-3,5-dimethylpiperazin-1-yl]-N-[5-[(3,5-dimethoxyphenyl)methoxy]-2H-pyrazol-3-yl]pyrazine-2-carboxamide], `COc1cc(CCc2cc(NC(=O)c3cnc(N4CCCN(C(C)C)CC4)cn3)[nH]n2)cc(OC)c1` [Example 167, N-[5-[2-(3,5-dimethoxyphenyl)ethyl]-2H-pyrazol-3-yl]-5-(4-propan-2-yl-1,4-diazepan-1-yl)pyrazine-2-carboxamide] is 5.6-fold lower in IC50: 3.5 nM for the first, 0.63 nM for the second. The second is the more potent here.

`CNC(=O)c1cccc(CCc2cc(NC(=O)c3ccc(N4CCN(C)CC4)cc3)[nH]n2)c1` [Example 178, N-[5-[2-[3-(methylcarbamoyl)phenyl]ethyl]-2H-pyrazol-3-yl]-4-(4-methylpiperazin-1-yl)benzamide] and `COc1cc(CCc2cc(NC(=O)c3cnc(C4CCN(C)CC4)cn3)[nH]n2)cc(OC)c1` [Example 152, N-[5-[2-(3,5-dimethoxyphenyl)ethyl]-2H-pyrazol-3-yl]-5-(1-methylpiperidin-4-yl)pyrazine-2-carboxamide] are within 1.5-fold of each other in IC50: 1.1 nM for the first, 1.3 nM for the second.
